Reference: publication PMC10384862, “[^212Pb]Pb-eSOMA-01: A Promising Radioligand for Targeted Alpha Therapy of Neuroendocrine Tumors” (Pharmaceuticals, 2023)
Like-named read-outs stand apart in the source and are kept apart here.

How the values were obtained:
[1] = Biodistribution study with lead-212; assay type: in vivo, mouse; conditions: mouse, intravenous; for tissue uptake at 1 h: 1 h p.i.; for tissue uptake at 4 h: 4 h p.i.
Description: (§1) Six-week-old male Balb/c nu/nu-specific and opportunistic pathogen-tree (SOPF) mice (Janvier Labs, Le Genest-Saint-Isle, France) were housed in individually ventilated cages, with four mice per cage. Upon arrival, the mice were acclimated for 1 week with access to food and water ad libitum. Mice were subcutaneously inoculated on the right shoulder with NCI-H69 cells (5 × 10^6 cells suspended in 100 μL of 1/3 Matrigel (Corning Inc.; Corning, NY, USA) and 2/3 Hank’s balanced salt solution (Gibco; Paisley, UK). NCI-H69 xenografts were allowed to grow for 3 weeks. Tumor sizes were 391 ± 173 mm^3 at the start of the studies.
(§2) Biodistribution studies were performed to determine tumor and organ uptake of [^212Pb]Pb-DOTAM-TATE, [^212Pb]Pb-eSOMA-01, and [^212Pb]Pb-eSOMA-02. Animals (n = 4 for each time point) were injected intravenously (i.v.) with an average of 100 kBq/0.5 nmol. At 3 selected time points (1, 4, and 24 h) p.i., blood was collected via retro-orbital puncture under isoflurane/O2 anesthesia, after which the mice were sacrificed via cervical dislocation. The tumor and organs of interest (heart, lungs, liver, spleen, stomach, large intestine, small intestine, pancreas, kidneys, muscle, skin, and bone) were excised, washed in PBS, and blotted dry. To confirm receptor specificity of radioligand uptake, mice (n = 3) were co-injected with an excess (25 nmol) of the respective unlabeled peptide, and uptake in the organs of interest was determined at 24 h p.i. To determine the total injected radioactivity per animal, a calibration curve with lead-212 was established using the gamma counter. The percentage of injected dose per gram (% ID/g) was determined for each tissue sample and corrected for both the injected volume and the % ID present at the injection site (the tail).

[2] = test system: H69-xenograft Balb/c nu/nu mice; assay: Biodistribution study with lead-212; assay type: in vivo, mouse; conditions: for Stomach uptake: 1 h p.i.
Description: as §1, §2

[3] = In vitro stability in PBS; assay type: physicochemical; conditions: ^212Pb-labeled, 37 °C, n = 1
Description: The ^203Pb-labeled compounds (~ 2 MBq) or the ^212Pb-labeled compounds (~ 70 kBq) were incubated in 300 µL of phosphate buffered saline (PBS; 0.1 M, pH 7.4) or mouse serum at 37 °C. The stability of the radiolabeled peptides was monitored at 1, 4, and 24 h post-incubation. The samples in PBS were directly analyzed by radio-HPLC without any pretreatment. However, samples of mouse serum were mixed with an equal volume of acetonitrile to precipitate the proteins. The solution was centrifuged twice for 5 min at 13,000 rpm, and the supernatant was analyzed by radio-HPLC using Method 1 for lead-203 and Method 2 for lead-212.

[4] = test system: kidney uptake; conditions: in vivo; cited from earlier work
[5] = test system: CD-1 mice; conditions: cited from earlier work; for Pancreas uptake: CD-1 mice
[6] = test system: H69-tumor xenograft and organs; assay: Dosimetry (absorbed dose from 212Pb biodistribution, RADAR mouse phantom); assay type: in vivo; conditions: based on MTD to the kidneys of 18–23 Gy
Description: Single exponential curves were fitted through the organ biodistribution time-activity data using Graphpad Prism. […] The absorbed doses were calculated with the MIRD equation D=∑sms×[TIACs]×S(t←s) , with ms being the source organ mass. A relative biological effect (RBE) of 5 was assumed for the alpha-radiation [47]. The uncertainty propagation in the dosimetry result was calculated [48].

[7] = blood, 100 kBq, n = 4, read-out: Blood uptake
[8] = bone, 100 kBq, n = 4, read-out: Bones uptake
[9] = heart, 100 kBq, n = 4, read-out: Heart uptake
[10] = intestines, 100 kBq, n = 4, read-out: Intestines uptake
[11] = intestines, 100 kBq, 24 h p.i., n = 4, read-out: Intestines uptake
[12] = kidneys, 100 kBq, n = 4, read-out: Kidneys uptake
[13] = kidneys, 100 kBq, 24 h p.i., n = 4, read-out: Kidneys uptake
[14] = kidneys, 24 h block: co-injection of excess (25 nmol) unlabeled peptide, read-out: Kidneys uptake
[15] = liver, 100 kBq, n = 4, read-out: Liver uptake
[16] = liver, 100 kBq, 24 h p.i., n = 4, read-out: Liver uptake
[17] = liver, 24 h block: co-injection of excess (25 nmol) unlabeled peptide, read-out: Liver uptake
[18] = lungs, 100 kBq, n = 4, read-out: Lungs uptake
[19] = lungs, 100 kBq, 24 h p.i., n = 4, read-out: Lungs uptake
[20] = pancreas, 100 kBq, n = 4, read-out: Pancreas uptake
[21] = skin, 100 kBq, n = 4, read-out: Skin uptake
[22] = spleen, 100 kBq, n = 4, read-out: Spleen uptake
[23] = stomach, 100 kBq, n = 4, read-out: Stomach uptake
[24] = stomach, 100 kBq, 24 h p.i., n = 4, read-out: Stomach uptake
[25] = stomach, 24 h block: co-injection of excess (25 nmol) unlabeled peptide, read-out: Stomach uptake
[26] = tumor, 100 kBq, n = 4, read-out: Tumor uptake
[27] = tumor, 100 kBq, 24 h p.i., n = 4, read-out: Tumor uptake

C[C@@H](O)[C@H](NC(=O)[C@@H]1CSSC[C@H](NC(=O)[C@@H](Cc2ccccc2)NC(=O)CN2CCN(CC(N)=O)CCN(CC(N)=O)CCN(CC(N)=O)CC2)C(=O)N[C@@H](Cc2ccc(O)cc2)C(=O)N[C@H](Cc2c[nH]c3ccccc23)C(=O)N[C@@H](CCCCN)C(=O)N[C@@H]([C@@H](C)O)C(=O)N1)C(=O)O [[^212Pb]Pb-DOTAM-TATE, metal not drawn, reference compound]
tissue uptake at 1 h [1, 7]: 1.34 ± 0.53 %ID/g | tissue uptake at 4 h [1, 7]: 0.02 ± 0.03 %ID/g | tissue uptake at 1 h [1, 8]: 0.69 ± 0.02 %ID/g | tissue uptake at 1 h [1, 9]: 0.61 ± 0.34 %ID/g | tissue uptake at 1 h [1, 10]: 2.03 ± 0.63 %ID/g | tissue uptake at 4 h [1, 10]: 0.68 ± 0.08 %ID/g | tissue uptake at 24 h [1, 11]: 0.22 ± 0.04 %ID/g | tissue uptake at 1 h [1, 12]: 53.5 ± 4.18 %ID/g | tissue uptake at 4 h [1, 12]: 49.4 ± 2.92 %ID/g | tissue uptake at 24 h [1, 13]: 29.2 ± 5.11 %ID/g | tissue uptake at 24 h [1, 14]: 25.8 ± 9.18 %ID/g | tissue uptake at 1 h [1, 15]: 2.69 ± 0.18 %ID/g | tissue uptake at 4 h [1, 15]: 2.26 ± 0.3 %ID/g | tissue uptake at 24 h [1, 16]: 1.42 ± 0.17 %ID/g | tissue uptake at 24 h [1, 17]: 0.25 ± 0.46 %ID/g | tissue uptake at 1 h [1, 18]: 2.75 ± 0.52 %ID/g | tissue uptake at 4 h [1, 18]: 0.82 ± 0.36 %ID/g | tissue uptake at 24 h [1, 19]: 0.33 ± 0.11 %ID/g | tissue uptake at 1 h [1, 20]: 5.19 ± 0.84 %ID/g | tissue uptake at 4 h [1, 20]: 1.14 ± 0.13 %ID/g | tissue uptake at 24 h ([1]; pancreas, 100 kBq, 24 h p.i., n = 4, read-out: Pancreas uptake): 0.28 ± 0.06 %ID/g | tissue uptake at 1 h [1, 21]: 1 ± 0.38 %ID/g | tissue uptake at 4 h [1, 21]: 0.59 ± 0.21 %ID/g | tissue uptake at 1 h [1, 22]: 0.55 ± 0.21 %ID/g | tissue uptake at 4 h [1, 22]: 0.22 ± 0.06 %ID/g | tissue uptake at 1 h [1, 23]: 2.69 ± 0.53 %ID/g | tissue uptake at 4 h [1, 23]: 1.62 ± 0.5 %ID/g | tissue uptake at 24 h [1, 24]: 0.61 ± 0.18 %ID/g | tissue uptake at 24 h [1, 25]: 0.25 ± 0.28 %ID/g | tissue uptake at 1 h [1, 26]: 9.57 ± 3.05 %ID/g | tissue uptake at 4 h [1, 26]: 8.04 ± 3.26 %ID/g | tissue uptake at 24 h [1, 27]: 6.07 ± 1.28 %ID/g | tissue uptake ([1]; tumor, 100 kBq, time point not stated): 8 to 9 %ID/g | Stomach uptake ([2]; n = 4): 2.7 % ID/g | Tumor uptake ([2]; 4 h p.i., n = 4): ~ 9 % ID/g | Kidneys uptake ([2]; 24 h p.i., n = 4): 29 ± 6 % ID/g | Tumor uptake ([2]; 24 h p.i., n = 4): ~ 6 % ID/g | Stability in PBS, intact labeled ligand ([3]; 1 h): 99% | Stability in PBS, intact labeled ligand ([3]; 4 h): 98% | Stability in PBS, intact labeled ligand ([3]; 24 h): 95% | Reduction in kidney uptake [4]: 3 fold | Pancreas uptake ([5]; 1 h, ref Tworowska et al.): 32 % ID/g | Kidney uptake ([5]; 1 h, ref Tworowska et al.): 21 % ID/g | Pancreas uptake ([5]; 4 h, ref Tworowska et al.): 15 % ID/g | Kidney uptake ([5]; 24 h, ref Tworowska et al.): 10 % ID/g | MTD (maximum tolerated absorbed dose) to the kidneys ([5]; mice): 18–23 Gy | Tumor uptake ([5]; ref Tworowska et al.): ~ 20 % ID/g

C[C@@H](O)[C@H](NC(=O)[C@@H]1CSSC[C@H](NC(=O)[C@@H](Cc2ccccc2)NC(=O)[C@H]2CC[C@H](CNC(=O)CN3CCN(CC(N)=O)CCN(CC(N)=O)CCN(CC(N)=O)CC3)CC2)C(=O)N[C@@H](Cc2ccc(O)cc2)C(=O)N[C@H](Cc2c[nH]c3ccccc23)C(=O)N[C@@H](CCCCN)C(=O)N[C@@H]([C@@H](C)O)C(=O)N1)C(=O)O [[^212Pb]Pb-eSOMA-01, metal not drawn]
tissue uptake at 1 h [1, 7]: 1.8 ± 0.37 %ID/g | tissue uptake at 1 h [1, 8]: 1.75 ± 0.44 %ID/g | tissue uptake at 4 h [1, 8]: 0.14 ± 0.09 %ID/g | tissue uptake at 1 h [1, 9]: 0.71 ± 0.33 %ID/g | tissue uptake at 1 h [1, 10]: 2.12 ± 0.39 %ID/g | tissue uptake at 4 h [1, 10]: 0.97 ± 0.12 %ID/g | tissue uptake at 24 h [1, 11]: 0.23 ± 0.02 %ID/g | tissue uptake at 24 h ([1]; intestines, 24 h block: co-injection of excess (25 nmol) unlabeled peptide, read-out: Intestines uptake): 0.06 ± 0.04 %ID/g | tissue uptake at 1 h [1, 12]: 78.8 ± 12.1 %ID/g | tissue uptake at 4 h [1, 12]: 39.6 ± 4.95 %ID/g | tissue uptake at 24 h [1, 13]: 22 ± 4.06 %ID/g | tissue uptake at 24 h [1, 14]: 17.8 ± 3.85 %ID/g | tissue uptake at 1 h [1, 15]: 4.72 ± 0.53 %ID/g | tissue uptake at 4 h [1, 15]: 2.73 ± 0.49 %ID/g | tissue uptake at 24 h [1, 16]: 1.7 ± 0.31 %ID/g | tissue uptake at 24 h [1, 17]: 1.07 ± 0.14 %ID/g | tissue uptake at 1 h [1, 18]: 4.05 ± 0.69 %ID/g | tissue uptake at 4 h [1, 18]: 1.38 ± 0.54 %ID/g | tissue uptake at 24 h [1, 19]: 0.44 ± 0.2 %ID/g | tissue uptake at 1 h ([1]; muscle, 100 kBq, n = 4, read-out: Muscle uptake): 0.22 ± 0.51 %ID/g | tissue uptake at 1 h [1, 20]: 7.86 ± 0.43 %ID/g | tissue uptake at 4 h [1, 20]: 1.72 ± 0.16 %ID/g | tissue uptake at 1 h [1, 21]: 2.23 ± 0.26 %ID/g | tissue uptake at 4 h [1, 21]: 0.17 ± 0.74 %ID/g | tissue uptake at 1 h [1, 22]: 0.98 ± 0.28 %ID/g | tissue uptake at 4 h [1, 22]: 0.23 ± 0.12 %ID/g | tissue uptake at 1 h [1, 23]: 7.08 ± 0.28 %ID/g | tissue uptake at 4 h [1, 23]: 2.51 ± 1.51 %ID/g | tissue uptake at 24 h [1, 24]: 0.87 ± 0.53 %ID/g | tissue uptake at 24 h [1, 25]: 0.05 ± 0.01 %ID/g | tissue uptake at 1 h [1, 26]: 16.1 ± 2.31 %ID/g | tissue uptake at 4 h [1, 26]: 10.9 ± 3.81 %ID/g | tissue uptake at 24 h [1, 27]: 6.83 ± 1.28 %ID/g | More tumor uptake than [212Pb]Pb-eSOMA-02 ([2]; 1 h and 24 h, p < 0.05): 61% | Stomach uptake ([2]; n = 4): 7.1 % ID/g | Tumor uptake ([2]; 4 h p.i., n = 4): ~ 9 % ID/g | Tumor uptake ([2]; 24 h p.i., n = 4): ~ 6 % ID/g | Maximum dose injected into mice [6]: around 0.2 MBq | Stability in PBS, intact labeled ligand ([3]; 1 h): 99% | Stability in PBS, intact labeled ligand ([3]; 4 h): 97% | Stability in PBS, intact labeled ligand ([3]; 24 h): 94%
